Reference: ChEMBL document CHEMBL1201862, “PubChem BioAssay data set” (2004)
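Exposure lasted 48 hours, with cells grown in 96-well plates and compounds tested at five concentrations. At the GI50, growth is halved.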 Calls of active or inactive are those of the source. No stated cut-off is given here; in the data, active = GI50 up to about 1.1 µM and inactive = higher.

Experiments:
Experiment in all cases: NCI-60 cell line screen, 48 h
SF-268 = test system: SF-268
HCC 2998 = test system: HCC 2998
HCT-116 = test system: HCT-116
SW-620 = test system: SW-620
RXF 393 = test system: RXF 393
RPMI-8226 = test system: RPMI-8226
M19-MEL = test system: M19-MEL
NCI-H226 = test system: NCI-H226
SK-MEL-5 = test system: SK-MEL-5
RXF 631 = test system: RXF 631
LOX IMVI = test system: LOX IMVI
KM12 = test system: KM12
XF498 = test system: XF498
786-0 = test system: 786-0
CAKI-1 = test system: CAKI-1
NCI-H23 = test system: NCI-H23
A549 = test system: A549
HCT-15 = test system: HCT-15
UO-31 = test system: UO-31
LXFL 529 = test system: LXFL 529
M14 = test system: M14
TK-10 = test system: TK-10
OVCAR-8 = test system: OVCAR-8
NCI-H522 = test system: NCI-H522
IGROV-1 = test system: IGROV-1
SNB-75 = test system: SNB-75
SR = test system: SR
CCRF-CEM = test system: CCRF-CEM
OVCAR-3 = test system: OVCAR-3
COLO 205 = test system: COLO 205
UACC-257 = test system: UACC-257
UACC-62 = test system: UACC-62
EKVX = test system: EKVX
SF-295 = test system: SF-295
HOP-62 = test system: HOP-62
HT-29 = test system: HT-29
KM-20L2 = test system: KM-20L2
OVCAR-4 = test system: OVCAR-4
A498 = test system: A498
SNB-19 = test system: SNB-19
ACHN = test system: ACHN
SN12C = test system: SN12C
U-251 = test system: U-251
K562 = test system: K562
DMS-114 = test system: DMS-114
SK-MEL-2 = test system: SK-MEL-2
HL-60 = test system: HL-60
MOLT-4 = test system: MOLT-4
DMS-273 = test system: DMS-273
DLD-1 = test system: DLD-1
SF-539 = test system: SF-539
Malme-3M = test system: Malme-3M
NCI-H460 = test system: NCI-H460
OVCAR-5 = test system: OVCAR-5
SNB-78 = test system: SNB-78
SK-OV-3 = test system: SK-OV-3
SK-MEL-28 = test system: SK-MEL-28
HOP-92 = test system: HOP-92

Measured: GI50

CNS(=O)(=O)NN(C)S(=O)(=O)c1ccc(Cl)cc1
> 100 µM: HCT-15
inactive: SF-268 > 100 µM | HCC 2998 > 100 µM | HCT-116 > 100 µM | SW-620 > 100 µM | RXF 393 > 100 µM | RPMI-8226 > 100 µM | M19-MEL > 100 µM | NCI-H226 > 100 µM | SK-MEL-5 > 100 µM | RXF 631 > 100 µM | LOX IMVI > 100 µM | KM12 > 100 µM | XF498 > 100 µM | 786-0 > 100 µM | CAKI-1 > 100 µM | NCI-H23 > 100 µM | A549 > 100 µM | UO-31 > 100 µM | LXFL 529 > 100 µM | M14 > 100 µM | TK-10 > 100 µM | OVCAR-8 > 100 µM | NCI-H522 > 100 µM | IGROV-1 > 100 µM | SNB-75 > 100 µM | SR > 100 µM | CCRF-CEM > 100 µM | OVCAR-3 > 100 µM | COLO 205 > 100 µM | UACC-257 > 100 µM | UACC-62 > 100 µM | EKVX 98.4 µM | SF-295 > 100 µM | HOP-62 > 100 µM | HT-29 > 100 µM | KM-20L2 > 100 µM | OVCAR-4 > 100 µM | A498 > 100 µM | SNB-19 > 100 µM | ACHN > 100 µM | SN12C > 100 µM | U-251 83 µM | K562 > 100 µM | DMS-114 > 100 µM | SK-MEL-2 > 100 µM | HL-60 > 100 µM | MOLT-4 > 100 µM | DMS-273 > 100 µM | DLD-1 > 100 µM | SF-539 > 100 µM | Malme-3M > 100 µM

O=C1C(=O)N(c2ccc(Cl)c(Cl)c2)C(=O)C(=O)C1c1nc2ccccc2o1
inactive: SF-268 > 100 µM | HCC 2998 > 100 µM | HCT-116 34.1 µM | SW-620 56.5 µM | RPMI-8226 24.7 µM | M19-MEL 58.7 µM | NCI-H226 > 100 µM | RXF 631 43.5 µM | LOX IMVI > 100 µM | KM12 > 100 µM | XF498 51.5 µM | 786-0 > 100 µM | CAKI-1 > 100 µM | NCI-H460 > 100 µM | NCI-H23 68.7 µM | A549 > 100 µM | OVCAR-5 > 100 µM | UO-31 > 100 µM | LXFL 529 93.8 µM | M14 80.4 µM | TK-10 > 100 µM | OVCAR-8 > 100 µM | NCI-H522 57.4 µM | IGROV-1 > 100 µM | SNB-75 > 100 µM | SR 30 µM | OVCAR-3 > 100 µM | COLO 205 47.2 µM | UACC-257 98.4 µM | UACC-62 74.8 µM | SNB-78 66.4 µM | SF-295 > 100 µM | SK-OV-3 > 100 µM | SK-MEL-28 > 100 µM | HOP-92 > 100 µM | HOP-62 > 100 µM | HT-29 41.6 µM | KM-20L2 > 100 µM | OVCAR-4 95.7 µM | SNB-19 72.9 µM | ACHN > 100 µM | SN12C 94.6 µM | U-251 33.3 µM | K562 36.6 µM | SK-MEL-2 > 100 µM | HL-60 22.9 µM | MOLT-4 31.7 µM | DMS-273 70.3 µM | DLD-1 59.2 µM | SF-539 > 100 µM | Malme-3M 87.9 µM
50.2 µM: HCT-15
